Earlier results on six molecules are cited in PubChem BioAssay AID1259410 (Chemical Carcinogenesis Research Information System (CCRIS), 2018).

The subject of this data set is rodent tumor promotion studies, tumor incidence. Put plainly: CCRIS tumor promotion studies.

For the molecule `C[C@]12CC[C@H](O)CC1=CC[C@@H]1[C@@H]2CC[C@]2(C)C(=O)CC[C@@H]12`, the outcome is given as “liver: tumor” (Carcinogen: N-METHYL-N'-NITRO-N-NITROSOGUANIDINE, 70-25-7, Doses [Carcinogen]: 35 PPM IN WATER FOR 30 MIN ONCE, Doses [Promoter]: 0, 111, 222, 444, 888 PPM IN DIET FOR 6 MO BEGINNING 3 MO POST CARCINOGEN TREATMENT (STUDY DURATION: 9 MO), Doses [Promoter]: 0, 111, 222, 444, 888 PPM IN DIET FOR 6 MO BEGINNING 3 MO POST CARCINOGEN TREATMENT (STUDY DURATION: 9 MO), Route [Carcinogen]: IMMERSION, Route [Promoter]: ORAL, Species: FISH, Strain/Sex: RAINBOW TROUT/MALE,FEMALE); “kidney: tumor” (Carcinogen: N-METHYL-N'-NITRO-N-NITROSOGUANIDINE, 70-25-7, Doses [Carcinogen]: 35 PPM IN WATER FOR 30 MIN ONCE, Doses [Promoter]: 0, 111, 888 PPM IN DIET FOR 6 MO BEGINNING 3 MO POST CARCINOGEN TREATMENT (STUDY DURATION: 9 MO), Doses [Promoter]: 0, 111, 888 PPM IN DIET FOR 6 MO BEGINNING 3 MO POST CARCINOGEN TREATMENT (STUDY DURATION: 9 MO), Route [Carcinogen]: IMMERSION, Route [Promoter]: ORAL, Species: FISH, Strain/Sex: RAINBOW TROUT/MALE,FEMALE); “liver: hepatocellular carcinoma” (Carcinogen: N-NITROSOMORPHOLINE, 59-89-2, Doses [Carcinogen]: 120 MG/L IN DRINKING WATER FOR 7 WK, Doses [Promoter]: 0, 0.6% IN THE DIET FOR DURATION OF STUDY BEGINNING 1 WK POST CARCINOGEN TREATMENT (STUDY DURATION: 84 WK), Route [Carcinogen]: ORAL, Route [Promoter]: ORAL, Species: RAT, Strain/Sex: SPRAGUE-DAWLEY/FEMALE); “liver: hepatocellular adenoma” (Carcinogen: N-NITROSOMORPHOLINE, 59-89-2, Doses [Carcinogen]: 120 MG/L IN DRINKING WATER FOR 7 WK, Doses [Promoter]: 0, 0.6% IN THE DIET FOR DURATION OF STUDY BEGINNING 1 WK POST CARCINOGEN TREATMENT (STUDY DURATION: 84 WK), Route [Carcinogen]: ORAL, Route [Promoter]: ORAL, Species: RAT, Strain/Sex: SPRAGUE-DAWLEY/MALE); “liver: tumor” (Doses [Carcinogen]: 10 PPB IN WATER FOR 30 MIN, Doses [Promoter]: 0, 444 PPM IN DIET FOR 6 MO BEGINNING 3 MO POST CARCINOGEN TREATMENT (STUDY DURATION: 9 MO), Route [Carcinogen]: IMMERSION, Route [Promoter]: ORAL, Species: FISH, Strain/Sex: RAINBOW TROUT/MALE, FEMALE); “liver: tumor” (Doses [Carcinogen]: 10 PPB IN WATER, Doses [Promoter]: 0, 222, 444, 888 PPM IN DIET 1/D 5 D/WK FOR 30 WK BEGINNING 16 WK POST CARCINOGEN TREATMENT (STUDY DURATION: 46 WK), Doses [Promoter]: 0, 222, 444, 888 PPM IN DIET 1/D 5 D/WK FOR 30 WK BEGINNING 16 WK POST CARCINOGEN TREATMENT (STUDY DURATION: 46 WK), Route [Carcinogen]: IMMERSION, Route [Promoter]: ORAL, Species: FISH, Strain/Sex: RAINBOW TROUT/MALE, FEMALE).

For `C[C@]12CC[C@H]3[C@@H](CCC4=CC(=O)CC[C@@]43C)[C@@H]1CC[C@@H]2O`, the outcome (Carcinogen: DIETHYLNITROSAMINE, 55-18-5, Doses [Carcinogen]: 2.5 UG/G BW IN SALINE ONCE, Doses [Promoter]: 0, 0.5-1 MG IN PELLET IMPLANTED 1/MONTH FOR 30 WK BEGINNING 30 D POST CARCINOGEN TREATMENT. DOSING BEGAN SAME DAY OF BIL, Route [Carcinogen]: INTRAPERITIONEAL, Route [Promoter]: SUBCUTANEOUS, Species: MOUSE, Strain/Sex: B6C3F1/FEMALE) was “liver: tumor”.

Take `O=c1c(O)c(-c2ccc(O)c(O)c2)oc2cc(O)cc(O)c12`: the outcome (Carcinogen: N-ETHYL-N'-NITRO-N-NITROSOGUANIDINE, 4245-77-6, Doses [Carcinogen]: 0.01% IN DRINKING WATER FOR 4 WK PRIOR TO PROMOTER DOSES, Doses [Promoter]: 2% IN DIET FOR 16 WK (STUDY DURATION: 20 WK), Route [Carcinogen]: ORAL, Route [Promoter]: ORAL, Species: MOUSE, Strain/Sex: C57BL6/MALE) was “duodenum: tumor”.

In the case of `CC(C)NCC(O)c1ccc(O)c(O)c1` (stereo not drawn), the outcome (Carcinogen: N-NITROSOMORPHOLINE, 59-89-2, Doses [Carcinogen]: 175 MG/L IN DRINKING WATER FOR 8 WK, Doses [Promoter]: 0, 0.1 MG/KG BW IN OLIVE OIL 1/2 D FOR 13 WK BEGINNING SIMULTANEOUSLY WITH CARCINOGEN TREATMENT (STUDY DURATION: 13 WK), Route [Carcinogen]: ORAL, Route [Promoter]: SUBCUTANEOUS, Species: RAT, Strain/Sex: SPRAGUE-DAWLEY/MALE) is “liver: carcinoma”.

Turning to `CC1=C(/C=C/C(C)=C/C=C/C(C)=C/C=C/C=C(C)/C=C/C=C(C)/C=C/C2=C(C)CCCC2(C)C)C(C)(C)CCC1`, the outcome (Carcinogen: 4-(N-METHYL-N-NITROSAMINO)-1-(3-PYRIDYL)-1-BUTANONE (NNK) [64091-91-4], Doses [Carcinogen]: 3.5 MG ON D 7, Doses [Promoter]: 0, 120, 600, 3000 PPM FROM START TO END AT 26 WKS (STUDY DURATION: 26 WKS), Doses [Promoter]: 0, 120, 600, 3000 PPM FROM START TO END AT 26 WKS (STUDY DURATION: 26 WKS), Route [Carcinogen]: IP INJECTION, Route [Promoter]: DIET, Species: MOUSE, Strain/Sex: A/J/MALE) is “lung - negative”; the outcome (Carcinogen: 4-(N-METHYL-N-NITROSAMINO)-1-(3-PYRIDYL)-1-BUTANONE (NNK) [64091-91-4], Doses [Carcinogen]: 3.5 MG ON D 15 (STUDY DURATION: 28 WKS), Doses [Promoter]: 600 PPM WKS 1 TO 3, WKS 6 TO 28 OR WKS 1 TO 28 (STUDY DURATION: 28 WKS), Route [Carcinogen]: IP INJECTION, Route [Promoter]: DIET, Species: MOUSE, Strain/Sex: A/J/MALE) is “lung - negative”; the outcome (Carcinogen: 4-(N-METHYL-N-NITROSAMINO)-1-(3-PYRIDYL)-1-BUTANONE (NNK) [64091-91-4], Doses [Carcinogen]: 5 MG ON D 28, Doses [Promoter]: 600 PPM FROM START TO WK 5, WK 3 TO 8, WKS 8 TO 24 OR FOR 24 WKS (STUDY DURATION: 24 WKS), Route [Carcinogen]: IP INJECTION, Route [Promoter]: DIET, Species: MOUSE, Strain/Sex: A/J/MALE) is “lung - negative”.

For the molecule `Oc1ccccc1Cl`, the outcome (Carcinogen: 7,12-DIMETHYLBENZ(A)ANTHRACENE, Doses [Carcinogen]: TOP, Route [Carcinogen]: DERMAL, Route [Promoter]: DERMAL, Species: MOUSE, Strain/Sex: FEMALE) is recorded as “integumentary system (skin)”.
